Read-outs that look alike come from different tables or passages of the source.
How the values were obtained:
trkA.IgG = assay: Competitive displacement binding with iodinated NGF to trkA.IgG; parameters: species or system human
Method: (§1) The media mentioned above (having the gD.trk.IgG) was used without further purification in binding assays to assess the effects of the presence of the gD flag polypeptide on neurotrophin binding to the gD.trk.IgG polypeptides. DNA encoding untagged trk.IgG polypeptide was run in parallel as a control. trk.IgG and gD tagged trk.IgG containing cell supernatants were prepared as described and used in competitive displacement assays with the appropriate iodinated neurotrophin. NGF is used as ligand for trkA, NT5 is used as ligand for trkB, and NT3 is used as a ligand for trkC.

[1] = test system: p185^HER2 (HER2 receptor); assay: p185HER2 KIRA ELISA (receptor autophosphorylation in MCF-7 cells); format: cell-based, human; conditions: for receptor stimulation and autophosphorylation (assay specificity, FIG. 8): HRG up to 3000 pM, other ligands up to 30000 pM
Method: MCF-7 cells (2×10^5) in 100 μl media were added to each well in a flat-bottom-96 well culture plate and cultured overnight at 37° C. in 5% CO2. The following morning the well supernatants were decanted, and the plates were lightly tamped on a paper towel. 50 μl of media containing either experimental samples or the recombinant HRGβ1177-244 standards (3000, 1000, 333, 111, 37, 12, 4, and 0 pM) was then added to each well. The cells were stimulated at 37° C. for 30 min., the well supernatants were decanted, and the plates were once again lightly tamped on a paper towel. To lyse the cells and solubilize the receptors, 100 μl of lysis buffer was added to each well. Lysis buffer consisted of 150 mM NaCl containing 50 mM HEPES (Gibco), 0.5% Triton-X 100 (Gibco), 0.01% thimerosal, 30 KIU/ml aprotinin (ICN Biochemicals, Aurora, Ohio), 1 mM 4-(2-aminoethyl)-benzenesulfonyl fluoride hydrochloride (AEBSF; ICN Biochemicals), 50 μM leupeptin (ICN Biochemicals), and 2 mM sodium orthovanadate (Na3 VO4, Sigma Chemical Co, St. Louis, Mo.), pH 7.5. The plate was then agitated gently on a plate shaker (Bellco Instruments, Vineland, N.J.) for 60 min. at room temperature.
While the cells were being solubilized, an ELISA microtiter plate (Nunc Maxisorp, Inter Med, Denmark) coated overnight at 4° C. with the affinity-purified polyclonal anti-HER2 ECD (1.0 μg/ml in 50 mM carbonate buffer, pH 9.6, 100 μl/well) was decanted, tamped on a paper towel and blocked with 150 μl/well of Block Buffer [PBS containing 0.5% BSA (Intergen Company, Purchase, N.Y.) and 0.01% thimerosal] for 60 min. at room temperature with gentle agitation. After 60 minutes, the anti-HER2 ECD coated plate was washed 6 times with wash buffer (PBS containing 0.05% Tween-20 and 0.01% thimerosal) using an automated plate washer (ScanWasher 300, Skatron Instruments, Inc, Sterling, Va.).
The lysate containing solubilized p185^HER2 from the cell-culture microtiter well was transferred (85 μl/well) to anti-rHER2 ECD coated and blocked ELISA well and was incubated for 2 h at room temperature with gentle agitation. […] The absorbance at 450 nm was read with a reference wavelength of 650 nm (ABS450/650), using a vmax plate reader (Molecular Devices, Palo Alto, Calif.) controlled with a Macintosh Centris 650 (Apple Computers, Cupertino, Calif.) and DeltaSoft software (BioMetallics, Inc, Princeton, N.J.).
The standard curve shown in FIG. 7 was generated by stimulating MCF-7 cells with 3000, 1000, 333, 111, 37, 12, 4, or 0 pM HRGβ1177-244 and presented as pM HRGβ1177-244 vs. mean ABS450/650 ±sd using the DeltaSoft program. Sample concentrations were obtained by interpolation of their absorbance on the standard curve and are expressed in terms of pM HRGβ1177-244 activity.

trkC.IgG = assay: Competitive displacement binding with iodinated NT3 to trkC.IgG; parameters: species or system human
Method: as §1

trkB.IgG = assay: Competitive displacement binding with iodinated NT5 to trkB.IgG; parameters: species or system human
Method: as §1

NGF: nerve growth factor prepared by recombinant techniques; ligand for trkA
IC50 (trkA.IgG; gD tagged trkA.IgG, read-out: IC50 with gD): 0.0688 ± 0.003 nM
IC50 (trkA.IgG; trkA.IgG, untagged, read-out: IC50 without gD): 0.0684 ± 0.0119 nM

insulin: insulin
receptor stimulation and autophosphorylation (assay specificity, FIG. 8) [1]: Neither insulin-like growth factor-1 (IGF-1), vascular endothelial growth factor (VEGF) nor insulin have any detectable effect

VEGF
receptor stimulation and autophosphorylation (assay specificity, FIG. 8) [1]: Neither insulin-like growth factor-1 (IGF-1), vascular endothelial growth factor (VEGF) nor insulin have any detectable effect

IGF-1: insulin-like growth factor-1
receptor stimulation and autophosphorylation (assay specificity, FIG. 8) [1]: Neither insulin-like growth factor-1 (IGF-1), vascular endothelial growth factor (VEGF) nor insulin have any detectable effect

NT3: neurotrophin 3 prepared by recombinant techniques; ligand for trkC
IC50 (trkC.IgG; gD tagged trkC.IgG, read-out: IC50 with gD): 0.0302 ± 0.0007 nM
IC50 (trkC.IgG; trkC.IgG, untagged, read-out: IC50 without gD): 0.0311 ± 0.0011 nM

EGF: epidermal growth factor
OD450/650 ([1]; highest concentration tested (100 nM)): 0.239

B1: NT5: neurotrophin 5 prepared by recombinant techniques; ligand for trkB (protein, UniProt P34130 81-210, looked up)
Neurotrophin-4: GVSETAPASRRGELAVCDAVSGWVTDRRTAVDLRGREVEVLGEVPAAGGSPLRQYFFETRCKADNAEEGGPGAGGGGCRGVDRRHWVSECKAKQSYVRALTADAQGRVGWRWIRIDTACVCTLLSRTGRA
IC50 (trkB.IgG; gD tagged trkB.IgG, read-out: IC50 with gD): 0.0121 ± 0.018 nM
IC50 (trkB.IgG; trkB.IgG, untagged, read-out: IC50 without gD): 0.0311 ± 0.0156 nM

Reference: patent US5914237A, “Kinase receptor activation assay” (Genentech Incorporated, priority 1995, dated 1999)
